Test results as given in US20220175768A1, “FGFR TYROSINE KINASE INHIBITORS FOR THE TREATMENT OF UROTHELIAL CARCINOMA” (Janssen Pharmaceutica NV, priority 2019, published 2022).

Conditions: 6 mg continuous, regimen 2 (n = 78)
Protocol: Study treatment was administered on 28-day cycles. Prior to interim analysis 1, there were 2 treatment regimens. Patients were randomized 1:1 to 28-day cycles to the following 2 regimens until a regimen was selected for further study: Regimen 1 (10 mg once daily intermittent (7 days on/7 days); Regimen 2 (6 mg once daily continuous). Randomization was stratified according to performance status (0 to 1 vs. 2), hemoglobin value (<10 vs. ≥10 g per dl), FGFR alteration type (mutation vs. fusion), prior treatment status (chemotherapy-resistant vs. chemotherapy naïve), and disease distribution (presence or absence of visceral [liver, lung, bone] metastases). Starting dose selection was based on phase 1 efficacy and tolerability.
Thus, after interim analysis, this became a single-arm study. […] Treatment continued until disease progression or unacceptable adverse event(s) per investigator.
All objective responses required confirmation by an additional investigator assessment within 4 to 6 weeks of first assessment. Disease evaluations for regimen 3 were also performed by an independent radiographic review committee. […] Safety was evaluated based on clinical laboratory tests, physical exams, electrocardiograms, and ophthalmology examinations. Adverse events and abnormalities were assessed by investigator and graded per NCI CTCAE v.4.0
Prophylactic measures were taken to minimize risk of common adverse events related to FGFR inhibition. To reduce risk of hyperphosphatemia, a low-phosphate diet was recommended for all patients (600 to 800 mg of dietary phosphate intake per day). To reduce the risk of skin effects, the application of alcohol-free emollient moisturizing cream and avoidance of unnecessary exposure to sunlight, soap, perfumed products, and hot baths was recommended. Patients were asked to keep their fingers and toes clean and nails trimmed to reduce risk of nail effects.
Additional ophthalmology examinations were performed if clinically indicated.

COc1cc(OC)cc(N(CCNC(C)C)c2ccc3ncc(-c4cnn(C)c4)nc3c2)c1 [erdafitinib, N-(3,5-dimethoxy-phenyl)-N′-(1-methylethyl)-N-[3-(1-methyl-1H-pyrazol-4-yl)quinoxalin-6-yl]ethane-1,2-diamine]
6 (7) no. (%): Patients with Dyspnea, Any grade
16 (21) no. (%): Patients with Nausea, Any grade
39 (50) no. (%): Patients with Diarrhea, Any grade
14 (18) no. (%): Patients with Abdominal pain, Any grade | Patients with Pyrexia, Any grade
23 (30) no. (%): Patients with Dry mouth, Grade 1
0 no. (%): Patients with Alanine aminotransferase increased, Grade ≥3 | Patients with Alopecia, Grade ≥3 | Patients with Anemia, Grade 1 | Patients with Aspartate aminotransferase increased, Grade ≥3 | Patients with Blood creatinine increased, Grade ≥3 | Patients with Constipation, Grade ≥3 | Patients with Diarrhea, Grade ≥3 | Patients with Dry skin, Grade ≥3 | Patients with Dysgeusia, Grade ≥3 | Patients with Dyspepsia, Grade ≥3 | Patients with Hand-foot syndrome, Grade ≥3 | Patients with Hematuria, Grade 2 | Patients with Hyperphosphatemia, Grade ≥3 | Patients with Hypomagnesemia, Grade 2 | Patients with Hypomagnesemia, Grade ≥3 | Patients with Hyponatremia, Grade 2 | Patients with Lacrimation increased, Grade ≥3 | Patients with Nail dystrophy, Grade ≥3 | Patients with Onychomadesis, Grade ≥3 | Patients with Oropharyngeal pain, Grade ≥3 | Patients with Paronychia, Grade ≥3 | Patients with Retinal detachment, Grade ≥3 | Patients with Urinary tract infection, Grade 1 | Patients with Vomiting, Grade ≥3 | Treatment-related adverse event: Alopecia, Grade 2 | Treatment-related adverse event: Alopecia, Grade ≥3
29 (37) no. (%): Patients with Decreased appetite, Any grade
20 (26) no. (%): Patients with Constipation, Any grade | Patients with Fatigue, Any grade
12 (15) no. (%): Patients with Decreased appetite, Grade 1 | Patients with Paronychia, Any grade
9 (12) no. (%): Patients with Alanine aminotransferase increased, Any grade | Patients with Alopecia, Grade 1 | Patients with Aspartate aminotransferase increased, Any grade | Patients with Asthenia, Grade ≥3 | Patients with Dyspepsia, Any grade | Patients with Hand-foot syndrome, Grade 2 | Patients with Pain in extremity, Any grade | Patients with Urinary tract infection, Grade 2 | Patients with Vomiting, Grade 1
10 (13) no. (%): Patients with Alopecia, Any grade | Patients with Constipation, Grade 1 | Patients with Constipation, Grade 2 | Patients with Dry skin, Grade 1 | Patients with Dysgeusia, Any grade | Patients with Lacrimation increased, Grade 1 | Patients with Paronychia, Grade 2
2 (3) no. (%): Patients with Abdominal pain, Grade ≥3 | Patients with Alanine aminotransferase increased, Grade 2 | Patients with Arthralgia, Grade 2 | Patients with Aspartate aminotransferase increased, Grade 2 | Patients with Back pain, Grade ≥3 | Patients with Conjunctivitis, Grade 2 | Patients with Dry eye, Grade 2 | Patients with Dry mouth, Grade ≥3 | Patients with Dyspnea, Grade ≥3 | Patients with Hyponatremia, Grade 1 | Patients with Insomnia, Grade 2 | Patients with Insomnia, Grade ≥3 | Patients with Onycholysis, Grade 1 | Patients with Onychomadesis, Grade 1 | Patients with Pain in extremity, Grade 1 | Patients with Paronychia, Grade 1 | Patients with Peripheral edema, Grade 1 | Patients with Vomiting, Grade 2 | Patients with Weight decreased, Grade 2 | Patients with Weight decreased, Grade ≥3
3 (4) no. (%): Patients with Back pain, Grade 2 | Patients with Blood creatinine increased, Grade 1 | Patients with Blood creatinine increased, Grade 2 | Patients with Dry eye, Grade 1 | Patients with Dyspepsia, Grade 2 | Patients with Dyspnea, Grade 2 | Patients with Lacrimation increased, Grade 2 | Patients with Oropharyngeal pain, Grade 2 | Patients with Peripheral edema, Grade 2 | Patients with Pyrexia, Grade 2 | Patients with Pyrexia, Grade ≥3 | Patients with Retinal detachment, Grade 2 | Patients with Vision blurred, Grade 1
11 (14) no. (%): Patients with Back pain, Any grade | Patients with Nausea, Grade 1 | Patients with Vomiting, Any grade
6 (8) no. (%): Patients with Back pain, Grade 1 | Patients with Blood creatinine increased, Any grade | Patients with Dry eye, Any grade | Patients with Dry mouth, Grade 2 | Patients with Dysgeusia, Grade 1 | Patients with Dyspepsia, Grade 1 | Patients with Hematuria, Any grade | Patients with Hypomagnesemia, Any grade | Patients with Hypomagnesemia, Grade 1 | Patients with Nail dystrophy, Grade 1 | Patients with Onycholysis, Grade 2 | Patients with Onychomadesis, Grade 2 | Patients with Pain in extremity, Grade 2 | Patients with Peripheral edema, Any grade
13 (17) no. (%): Patients with Anemia, Any grade | Patients with Decreased appetite, Grade 2 | Patients with Hand-foot syndrome, Any grade | Patients with Lacrimation increased, Any grade | Patients with Onycholysis, Any grade | Patients with Stomatitis, Grade 1 | Patients with Stomatitis, Grade 2 | Patients with Urinary tract infection, Any grade
8 (10) no. (%): Patients with Anemia, Grade 2 | Patients with Arthralgia, Any grade | Patients with Dry skin, Grade 2 | Patients with Fatigue, Grade 1 | Patients with Fatigue, Grade 2 | Patients with Hyperphosphatemia, Grade 2 | Patients with Insomnia, Any grade | Patients with Onychomadesis, Any grade | Patients with Oropharyngeal pain, Any grade | Patients with Pyrexia, Grade 1 | Patients with Retinal detachment, Any grade | Patients with Weight decreased, Any grade | Treatment-related adverse event: Alopecia, Any grade | Treatment-related adverse event: Alopecia, Grade 1
52 (67) no. (%): Patients with Hyperphosphatemia, Any grade
33 (42) no. (%): Patients with Stomatitis, Any grade
1 (1) no. (%): Patients with Alopecia, Grade 2 | Patients with Arthralgia, Grade ≥3 | Patients with Conjunctivitis, Grade ≥3 | Patients with Dry eye, Grade ≥3 | Patients with Dyspnea, Grade 1 | Patients with Hematuria, Grade ≥3 | Patients with Nail dystrophy, Grade 2 | Patients with Nausea, Grade ≥3 | Patients with Pain in extremity, Grade ≥3 | Patients with Peripheral edema, Grade ≥3 | Patients with Vision blurred, Grade 2 | Patients with Vision blurred, Grade ≥3
5 (6) no. (%): Patients with Abdominal pain, Grade 2 | Patients with Anemia, Grade ≥3 | Patients with Arthralgia, Grade 1 | Patients with Asthenia, Grade 1 | Patients with Hematuria, Grade 1 | Patients with Hyponatremia, Grade ≥3 | Patients with Onycholysis, Grade ≥3 | Patients with Oropharyngeal pain, Grade 1 | Patients with Retinal detachment, Grade 1 | Patients with Vision blurred, Any grade
4 (5) no. (%): Patients with Asthenia, Grade 2 | Patients with Conjunctivitis, Grade 1 | Patients with Decreased appetite, Grade ≥3 | Patients with Dysgeusia, Grade 2 | Patients with Fatigue, Grade ≥3 | Patients with Hand-foot syndrome, Grade 1 | Patients with Insomnia, Grade 1 | Patients with Nausea, Grade 2 | Patients with Urinary tract infection, Grade ≥3 | Patients with Weight decreased, Grade 1
44 (56) no. (%): Patients with Hyperphosphatemia, Grade 1
18 (23) no. (%): Patients with Asthenia, Any grade | Patients with Dry skin, Any grade
7 (9) no. (%): Patients with Abdominal pain, Grade 1 | Patients with Alanine aminotransferase increased, Grade 1 | Patients with Aspartate aminotransferase increased, Grade 1 | Patients with Conjunctivitis, Any grade | Patients with Hyponatremia, Any grade | Patients with Nail dystrophy, Any grade | Patients with Stomatitis, Grade ≥3
31 (40) no. (%): Patients with Dry mouth, Any grade
24 (31) no. (%): Patients with Diarrhea, Grade 1
15 (19) no. (%): Patients with Diarrhea, Grade 2
